Source: patent US6727237B2, “Inhibitors of bacterial NAD synthetase” (priority 1998, dated 2004)

Columns and labels:
[1] = system: Staphylococcus epidermitis; assay: Bacterial growth inhibition screen in LB media (absorbance 595 nm), percent inhibition; conditions: S. epidermitis
[2] = target: T1, bacterial NAD synthetase enzyme (Bacillus subtilis, UniProt P08164); assay: biochemical; type: biochemical
T1 sequence (P08164 2-272 limits assumed): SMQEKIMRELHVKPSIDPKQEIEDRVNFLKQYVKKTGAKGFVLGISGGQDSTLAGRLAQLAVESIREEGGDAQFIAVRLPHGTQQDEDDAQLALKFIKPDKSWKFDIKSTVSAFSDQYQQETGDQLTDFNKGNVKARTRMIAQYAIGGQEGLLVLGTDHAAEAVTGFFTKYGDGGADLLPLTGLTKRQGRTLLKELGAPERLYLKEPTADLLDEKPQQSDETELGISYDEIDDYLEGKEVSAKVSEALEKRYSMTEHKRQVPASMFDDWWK

[3] = compound at 0.2 mM (Table 312A)

Compound | % Inhibition ([1]; concentration screened 10 uM) [%] | % Inhibition [2, 3] [%] | % Inhibition ([1]; concentration screened 100 uM) [%] | % Inhibition ([2]; compound at 0.1 mM (Table 314)) [%] | IC50 ([2]; lead compounds (Table 318A), read-out: IC 50) [µM]
CC(C)c1ccc2[nH]c(CCCCCCCC[n+]3ccc4ccccc4c3)cc2c1 [Compound 539] | 4.67 | 16.80 | – | – | –
c1ccc(-c2ccc3[nH]c(CCCCCCCC[n+]4cccc5ccccc54)cc3c2)cc1 [Compound 437] | 11.84 | 6.91 | – | – | –
COC(=O)c1ccc2[nH]c(CCCCC[n+]3ccc4ccccc4c3)cc2c1 [Compound 596] | – | 56.49 | 96.36 | – | –
O=C(OCCCCc1cc2cc(C(F)(F)F)ccc2[nH]1)c1cccnc1 [Compound 654] | 25.20 | 2.11 | – | – | –
COc1ccc2c(ccn2CCCCOC(=O)Cc2ccc([N+](C)(C)C)cc2)c1 [Compound 740] | 5.17 | 7.23 | – | – | –
O=[N+]([O-])c1cc([N+](=O)[O-])c2[nH]c(CCCCC[n+]3ccc4ccccc4c3)cc2c1 [Compound 524] | – | 30.81 | 99.57 | – | –
CC(=O)c1ccc2[nH]c(CCCCOC(=O)c3cccnc3)cc2c1 [Compound 672] | 1.57 | 2.63 | – | – | –
c1cc[n+](CCCCCCc2cc3ccccc3[nH]2)cc1 [Compound 285] | – | 32.45 | 98.57 | – | –
O=[N+]([O-])c1ccc2[nH]c(CCCCCC[n+]3ccc4ccccc4c3)cc2c1 [Compound 549] | 3.13 | 14.08 | – | – | –
CC(=O)c1ccc2[nH]c(CCCCCC[n+]3ccccc3)cc2c1 [Compound 369] | – | 35.33 | 100.00 | – | –
CN(C)c1ccc(CC(=O)OCCCCCCn2ccc3cc([N+](=O)[O-])ccc32)cc1 [Compound 850] | 56.50 | – | – | 87.46 | 80
c1ccc(-c2ccc3[nH]c(CCCCC[n+]4ccccc4)cc3c2)cc1 [Compound 326] | 6.27 | – | – | 16.11 | –
FC(F)(F)c1ccc2cc(CCCCCC[n+]3ccc4ccccc4c3)[nH]c2c1 [Compound 507] | – | 26.18 | 15.86 | – | –
c1ccc(Oc2ccc3[nH]c(CCCCC[n+]4ccc5ccccc5c4)cc3c2)cc1 [Compound 566] | – | 29.72 | 98.21 | – | –
FC(F)(F)c1ccc2cc(CCCC[n+]3cccc4ccccc43)[nH]c2c1 [Compound 397] | 5.85 | – | – | 4.51 | –
O=C(O)c1ccc2[nH]c(CCCCCCCC[n+]3ccc4ccccc4c3)cc2c1 [Compound 605] | – | 68.65 | 44.29 | – | –
CN(C)c1ccc(C(=O)OCCCCc2cc3cc(C(=O)c4ccccc4)ccc3[nH]2)cc1 [Compound 645] | – | 4.31 | 9.23 | – | –
CC(C)c1ccc2[nH]c(CCCCC[n+]3ccc4ccccc4c3)cc2c1 [Compound 536] | – | 32.49 | 96.64 | – | –
O=[N+]([O-])c1ccc2[nH]c(CCCCCCC[n+]3ccc4ccccc4c3)cc2c1 [Compound 550] | 4.40 | 28.18 | – | – | –
O=[N+]([O-])c1ccc2[nH]c(CCCC[n+]3cccc4ccccc43)cc2c1 [Compound 439] | 30.57 | – | – | 2.57 | –

Compound | % Inhibition ([1]; concentration screened 10 uM) [%] | % Inhibition [2, 3] [%] | % Inhibition ([1]; concentration screened 100 uM) [%] | % Inhibition ([2]; compound at 0.1 mM (Table 314)) [%] | IC50 ([2]; lead compounds (Table 318A), read-out: IC 50) [µM]
O=C(c1ccccc1)c1ccc2[nH]c(CCCCOC(=O)c3ccccc3-c3ccccc3)cc2c1 [Compound 648] | – | 5.82 | 14.57 | – | –
CCCCc1ccc2[nH]c(CCCCC[n+]3cccc4ccccc43)cc2c1 [Compound 422] | 9.82 | 16.23 | – | – | –
c1ccc(C(c2ccccc2)(c2ccccc2)c2ccc3[nH]c(CCCCCC[n+]4ccccc4)cc3c2)cc1 [Compound 339] | – | 42.87 | 100.00 | – | –
O=[N+]([O-])c1cc([N+](=O)[O-])c2[nH]c(CCCCCC[n+]3cccc4ccccc43)cc2c1 [Compound 417] | 7.80 | 14.59 | – | – | –
CCCCc1ccc2[nH]c(CCCCCC[n+]3ccc4ccccc4c3)cc2c1 [Compound 531] | 8.77 | 36.55 | – | – | –
CC(C)c1ccc2[nH]c(CCCCOC(=O)C(c3ccccc3)c3ccccc3)cc2c1 [Compound 663] | – | 15.43 | 44.28 | – | –
COC(=O)c1ccc2[nH]c(CCCCC[n+]3ccccc3)cc2c1 [Compound 380] | – | 10.09 | 97.64 | – | –
CC(C)c1ccc2[nH]c(CCC[n+]3ccccc3)cc2c1 [Compound 318] | 2.99 | 14.94 | – | – | –
c1ccc(Oc2ccc3[nH]c(CCCCCCC[n+]4ccc5ccccc5c4)cc3c2)cc1 [Compound 568] | 3.10 | 18.95 | – | – | –
COc1ccc2[nH]c(CCCCCCCC[n+]3ccc4ccccc4c3)cc2c1 [Compound 593] | – | 60.19 | 100.00 | – | –
c1ccc(C(c2ccccc2)(c2ccccc2)c2ccc3[nH]c(CCCCCCCC[n+]4cccc5ccccc54)cc3c2)cc1 [Compound 449] | 7.73 | 8.67 | – | – | –
c1ccc2[nH]c(CCCCC[n+]3cccc4ccccc43)cc2c1 [Compound 392] | 9.61 | 10.89 | – | – | –
CC(C)c1ccc2[nH]c(CCCCC[n+]3cccc4ccccc43)cc2c1 [Compound 428] | 5.85 | 26.53 | – | – | –
CC(=O)c1ccc2[nH]c(CCCCCC[n+]3ccc4ccccc4c3)cc2c1 [Compound 585] | 2.09 | 17.43 | – | – | –
CC(=O)c1ccc2[nH]c(CCCCCCCOC(=O)c3cccnc3)cc2c1 [Compound 673] | 1.50 | 1.81 | – | – | –
Fc1ccc2[nH]c(CCC[n+]3ccccc3)cc2c1 [Compound 342] | 14.97 | 11.92 | – | – | –
CN(C)c1cccc(C(=O)OCCCCCCCCc2cc3cc(Oc4ccccc4)ccc3[nH]2)c1 [Compound 617] | – | 2.02 | 19.54 | – | –
FC(F)(F)c1ccc2[nH]c(CCCCCCC[n+]3ccccc3)cc2c1 [Compound 364] | 2.16 | 29.20 | – | – | –
CC(=O)c1ccc2[nH]c(CCCCCCCC[n+]3ccc4ccccc4c3)cc2c1 [Compound 587] | – | 56.47 | 100.00 | – | –
c1ccc(-c2ccc3[nH]c(CCCCC[n+]4ccc5ccccc5c4)cc3c2)cc1 [Compound 542] | – | 15.89 | 96.93 | – | –

Compound | % Inhibition ([1]; concentration screened 10 uM) [%] | % Inhibition [2, 3] [%] | % Inhibition ([1]; concentration screened 100 uM) [%] | % Inhibition ([2]; compound at 0.1 mM (Table 314)) [%] | IC50 ([2]; lead compounds (Table 318A), read-out: IC 50) [µM]
COc1ccc2[nH]c(CCCC[n+]3ccc4ccccc4c3)cc2c1 [Compound 589] | 29.35 | – | – | 24.98 | –
c1ccc2[nH]c(CCCCCCC[n+]3cccc4ccccc43)cc2c1 [Compound 394] | 7.03 | 4.62 | – | – | –
FC(F)(F)c1ccc2cc(CCCCC[n+]3ccc4ccccc4c3)[nH]c2c1 [Compound 506] | – | 21.74 | 98.64 | – | –
O=[N+]([O-])c1ccc2c(ccn2CCCCCCO)c1 [Compound 862, 6-[N-(5-nitroindolyl)]hexan-1-ol] | 48.29 | 9.05 | – | – | –
O=C(c1ccccc1)c1ccc2[nH]c(CCCC[n+]3ccccc3)cc2c1 [Compound 355] | 5.78 | 2.08 | – | 3.31 | –
CN(C)c1ccc(C(=O)OCCCCCCCCc2cc3cc(Oc4ccccc4)ccc3[nH]2)cc1 [Compound 620] | – | 19.03 | 12.69 | – | –
O=[N+]([O-])c1ccc2[nH]c(CCCCCC[n+]3ccccc3)cc2c1 [Compound 333] | – | – | 100.00 | 26.29 | –
Fc1ccc2[nH]c(CCCCC[n+]3ccc4ccccc4c3)cc2c1 [Compound 560] | – | 46.91 | 98.43 | – | –
O=C(c1ccccc1)c1ccc2[nH]c(CCCCC[n+]3cccc4ccccc43)cc2c1 [Compound 464] | 35.45 | 13.50 | – | – | –
O=C(OCCCCCCCc1cc2cc(Oc3ccccc3)ccc2[nH]1)c1ccncc1 [Compound 700] | 3.61 | 2.54 | – | – | –
Fc1cc(F)c2[nH]c(CCCCCC[n+]3ccccc3)cc2c1 [Compound 303] | – | 50.56 | 100.00 | – | –
COc1ccc2[nH]c(CCCCC[n+]3ccc4ccccc4c3)cc2c1 [Compound 590] | – | 28.82 | 94.43 | – | –
O=C(O)c1ccc2[nH]c(CCCCCC[n+]3ccccc3)cc2c1 [Compound 387] | – | – | 97.64 | 29.97 | –
c1ccc(-c2ccc3[nH]c(CCCCCCCC[n+]4ccc5ccccc5c4)cc3c2)cc1 [Compound 545] | 15.39 | 32.18 | – | – | –
CC(C)c1ccc2[nH]c(CCCCOC(=O)c3ccc(N(C)C)cc3)cc2c1 [Compound 627] | – | 11.19 | 20.10 | – | –
COC(=O)C=Cc1cn(CCCCCCC[n+]2cccc(C(=O)OC)c2)c2ccccc12 [Compound 269] | 46.12 | – | – | 51.12 | –
COC(=O)c1ccc2[nH]c(CCCCCCC[n+]3ccc4ccccc4c3)cc2c1 [Compound 598] | 8.86 | 43.33 | – | – | –
O=C(OCCCCCCCCc1cc2cc(Oc3ccccc3)ccc2[nH]1)C(c1ccccc1)c1ccccc1 [Compound 659] | – | 25.47 | 20.41 | – | –
O=C(c1ccccc1)c1ccc2[nH]c(CCCCCC[n+]3ccc4ccccc4c3)cc2c1 [Compound 573] | 16.09 | 26.24 | – | – | –
